Results reported in patent publication US12012403B2, “Aryl sulfonyl compounds as CCR6 inhibitors” (CHEMOCENTRYX, INC., priority 2021, dated 2024).

Biological target: T1, human CCR6 (Homo sapiens, UniProt P51684)
T1 construct: expressed in transfected cells; host or cells: Ba/F3 cells (murine pro-B line), hCCR6-transfected, CMV promoter, sodium butyrate induction
T1 sequence (P51684 1-374): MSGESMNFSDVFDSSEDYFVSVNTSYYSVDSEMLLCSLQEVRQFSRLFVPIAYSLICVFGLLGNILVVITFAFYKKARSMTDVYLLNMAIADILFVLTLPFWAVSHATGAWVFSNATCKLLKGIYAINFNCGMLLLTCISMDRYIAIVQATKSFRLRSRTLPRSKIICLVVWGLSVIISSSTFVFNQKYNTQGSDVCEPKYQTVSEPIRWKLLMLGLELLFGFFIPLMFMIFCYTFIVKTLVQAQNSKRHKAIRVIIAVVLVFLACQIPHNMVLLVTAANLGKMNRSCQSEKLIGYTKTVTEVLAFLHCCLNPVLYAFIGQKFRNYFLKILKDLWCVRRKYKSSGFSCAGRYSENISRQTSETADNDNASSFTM
Experiment: Migration (chemotaxis) assay, hCCR6-transfected Ba/F3 cells toward CCL20
Format: cell-based
Conditions: hCCR6-transfected Ba/F3 cells in human serum; recombinant human CCL20 10 nM; 37° C. 45 minutes; read-out: Potency (IC50 value in the migration assay)
How it was run: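 Ba/F3 cells stably transfected with human CCR6 (CMV promoter), pre-induced 24 hr with sodium butyrate, suspended at 4 million/ml in human serum with test compound serially diluted from 10 μM final. Migration through 5-μm polycarbonate membrane toward 10 nM CCL20 (EC50) for 45 min at 37 °C; migrated cells quantified by CyQUANT fluorescence.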

IC50 [nM]	SMILES
5 to 100	CC(C)(C)OC(=O)N1CCC=C(c2ccc(S(=O)(=O)N3CCC(Nc4ccc(C(F)(F)F)cn4)CC3)cc2)C1 [Example 1.233]
5 to 100	CC(C)(C)OC(=O)N1CC=C(c2ccc(S(=O)(=O)N3CCC(Nc4ccc(C(F)(F)F)cn4)CC3)cc2)CC1 [Example 1.234]
5 to 100	O=S(=O)(c1ccc(N2CCCCC2)cc1)N1CCC(Nc2ccc(C(F)(F)F)cn2)CC1 [Example 1.235]
5 to 100	O=S(=O)(c1ccc(C2=CCOCC2)cc1)N1CCC(Nc2ccc(C(F)(F)F)cn2)CC1 [Example 1.236]
